Data: patent US20240209019A1, “COMPOUNDS AND METHODS FOR TREATING HYPERKALEMIA” (ARDELYX, INC., priority 2019, published 2024)

Molecular target: HSD2 (Homo sapiens (Human), UniProt P80365)
Assay: HSD2 activity: cortisol conversion in human descending colon organoid monolayer cultures (Example 112)
Conditions: not given

Chain of HSD2 (P80365 whole entry): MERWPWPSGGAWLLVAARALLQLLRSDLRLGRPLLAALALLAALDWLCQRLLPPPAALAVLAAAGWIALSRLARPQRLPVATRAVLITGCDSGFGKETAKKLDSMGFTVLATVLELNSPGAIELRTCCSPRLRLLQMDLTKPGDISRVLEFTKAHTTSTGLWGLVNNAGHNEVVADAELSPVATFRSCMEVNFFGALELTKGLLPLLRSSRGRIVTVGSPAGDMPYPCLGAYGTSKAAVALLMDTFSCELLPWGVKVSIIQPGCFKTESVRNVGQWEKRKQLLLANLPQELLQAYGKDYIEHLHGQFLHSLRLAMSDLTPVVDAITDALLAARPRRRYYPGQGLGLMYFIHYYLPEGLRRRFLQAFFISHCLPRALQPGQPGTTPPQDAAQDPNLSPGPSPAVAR

| IC50 | Structure (SMILES) |
| --- | --- |
| > 10 µM | COCCOCCOCCOCCC(=O)O[C@H]1CC[C@@]2(C)[C@@H](CC[C@]3(C)[C@@H]2C(=O)C=C2[C@@H]4C[C@@](C)(C(=O)O)CC[C@]4(C)CC[C@]23C)[C@]1(C)C(=O)O [Compound 190-3, (2S,4aS,6aS,6bR,8aR,9S,10S,12aS,12bR,14bR)-10-((2,5,8,11-tetraoxatetradecan-14-oyl)oxy)-2,4a,6a,6b,9,12a-hexamethyl-13-oxo-1,2,3,4,4a,5,6,6a,6b,7,8,8a,9,10,11,12,12a,12b,13,14b-icosahydropicene-2,9-dicarboxylic acid] |

Same assay, conditions: human descending colon epithelial cultures on transwells; 30 minute pre-incubation, then 40 nM cortisol for four hours; cortisol HTRF assay

| Structure (SMILES) | pIC50 |
| --- | --- |
| CC1(C)[C@@H](C(=O)O)CC[C@]2(C)[C@H]3C(=O)C=C4[C@@H]5C[C@@](C)(C(=O)O)CC[C@]5(C)CC[C@@]4(C)[C@]3(C)CC[C@@H]12 [(2S,4aS,6aS,6bR,8aS,10S,12aS,12bR,14bR)-2,4a,6a,6b,9,9,12a-heptamethyl-13-oxo-1,2,3,4,4a,5,6,6a,6b,7,8,8a,9,10,11,12,12a,12b,13,14b-icosahydropicene-2,10-dicarboxylic acid] | 5.5 |
| CC1(C)[C@@H](OCC(=O)O)CC[C@]2(C)[C@H]3C(=O)C=C4[C@@H]5C[C@@](C)(C(=O)O)CC[C@]5(C)CC[C@@]4(C)[C@]3(C)CC[C@@H]12 [Compound 78-2, (2S,4aS,6aS,6bR,8aR,10S,12aS,12bR,14bR)-10-(Carboxymethoxy)-2,4a,6a,6b,9,9,12a-heptamethyl-13-oxo-1,2,3,4,4a,5,6,6a,6b,7,8,8a,9,10,11,12,12a,12b,13,14b-icosahydropicene-2-carboxylic acid] | 5.4 |
| Cc1oc(=O)oc1COC(=O)[C@H]1CC[C@]2(C)[C@H]3C(=O)C=C4[C@@H]5C[C@@](C)(C(=O)O)CC[C@]5(C)CC[C@@]4(C)[C@]3(C)CC[C@H]2C1(C)C [Compound 176-2, (2S,4aS,6aS,6bR,8aS,10S,12aS,12bR,14bR)-2,4a,6a,6b,9,9,12a-Heptamethyl-10-(((5-methyl-2-oxo-1,3-dioxol-4-yl)methoxy)carbonyl)-13-oxo-1,2,3,4,4a,5,6,6a,6b,7,8,8a,9,10,11,12,12a,12b,13,14b-icosahydropicene-2-carboxylic acid] | 6.3 |
| CC1OC(=O)OC1COC(=O)[C@H]1CC[C@]2(C)[C@H]3C(=O)C=C4[C@@H]5C[C@@](C)(C(=O)O)CC[C@]5(C)CC[C@@]4(C)[C@]3(C)CC[C@H]2C1(C)C (stereo partly drawn) [Compound 178-1, (2S,4aS,6aS,6bR,8aS,10S,12aS,12bR,14bR)-2,4a,6a,6b,9,9,12a-Heptamethyl-10-(((5-methyl-2-oxo-1,3-dioxolan-4-yl)methoxy)carbonyl)-13-oxo-1,2,3,4,4a,5,6,6a,6b,7,8,8a,9,10,11,12,12a,12b,13,14b-icosahydropicene-2-carboxylic acid] | 6.3 |
| CSCC(=O)O[C@H]1CC[C@@]2(C)[C@@H](CC[C@]3(C)[C@@H]2C(=O)C=C2[C@@H]4C[C@@](C)(C(=O)O)CC[C@]4(C)CC[C@]23C)[C@]1(C)C(=O)OCc1oc(=O)oc1C [Compound 194-10, (2S,4aS,6aS,6bR,8aR,9S,10S,12aS,12bR,14bR)-2,4a,6a,6b,9,12a-Hexamethyl-9-(((5-methyl-2-oxo-1,3-dioxol-4-yl)methoxy)carbonyl)-10-(2-(methylthio)acetoxy)-13-oxo-1,2,3,4,4a,5,6,6a,6b,7,8,8a,9,10,11,12,12a,12b,13,14b-icosahydropicene-2-carboxylic acid] | 8 |
| Cc1oc(=O)oc1COC(=O)[C@]1(C)[C@@H](OC(=O)CS(C)(=O)=O)CC[C@@]2(C)[C@H]1CC[C@]1(C)[C@@H]2C(=O)C=C2[C@@H]3C[C@@](C)(C(=O)O)CC[C@]3(C)CC[C@]21C [Compound 195-2, (2S,4aS,6aS,6bR,8aR,9S,10S,12aS,12bR,14bR)-2,4a,6a,6b,9,12a-Hexamethyl-9-(((5-methyl-2-oxo-1,3-dioxol-4-yl)methoxy)carbonyl)-10-(2-(methylsulfonyl)acetoxy)-13-oxo-1,2,3,4,4a,5,6,6a,6b,7,8,8a,9,10,11,12,12a,12b,13,14b-icosahydropicene-2-carboxylic acid] | 6.3 |
| Cc1oc(=O)oc1COC(=O)[C@]1(C)[C@@H](OC(=O)c2ccccc2)CC[C@@]2(C)[C@H]1CC[C@]1(C)[C@@H]2C(=O)C=C2[C@@H]3C[C@@](C)(C(=O)O)CC[C@]3(C)CC[C@]21C [Compound 197-2, (2S,4aS,6aS,6bR,8aR,9S,10S,12aS,12bR,14bR)-10-(Benzoyloxy)-2,4a,6a,6b,9,12a-hexamethyl-9-(((5-methyl-2-oxo-1,3-dioxol-4-yl)methoxy)carbonyl)-13-oxo-1,2,3,4,4a,5,6,6a,6b,7,8,8a,9,10,11,12,12a,12b,13,14b-icosahydropicene-2-carboxylic acid] | 7.9 |
| Cc1oc(=O)oc1COC(=O)[C@]1(C)[C@@H](OC(=O)C2CC2)CC[C@@]2(C)[C@H]1CC[C@]1(C)[C@@H]2C(=O)C=C2[C@@H]3C[C@@](C)(C(=O)O)CC[C@]3(C)CC[C@]21C [Compound 198-2, (2S,4aS,6aS,6bR,8aR,9S,10S,12aS,12bR,14bR)-10-((Cyclopropanecarbonyl)oxy)-2,4a,6a,6b,9,12a-hexamethyl-9-(((5-methyl-2-oxo-1,3-dioxol-4-yl)methoxy)carbonyl)-13-oxo-1,2,3,4,4a,5,6,6a,6b,7,8,8a,9,10,11,12,12a,12b,13,14b-icosahydropicene-2-carboxylic acid] | 7.7 |
| COCO[C@H]1CC[C@@]2(C)[C@@H](CC[C@]3(C)[C@@H]2C(=O)C=C2[C@@H]4C[C@@](C)(C(=O)O)CC[C@]4(C)CC[C@]23C)[C@]1(C)C(=O)OCc1oc(=O)oc1C [Compound 205-2, (2S,4aS,6aS,6bR,8aR,9S,10S,12aS,12bR,14bR)-10-(Methoxymethoxy)-2,4a,6a,6b,9,12a-hexamethyl-9-(((5-methyl-2-oxo-1,3-dioxol-4-yl)methoxy)carbonyl)-13-oxo-1,2,3,4,4a,5,6,6a,6b,7,8,8a,9,10,11,12,12a,12b,13,14b-icosahydropicene-2-carboxylic acid] | 6.4 |
| CC(=O)O[C@H]1CC[C@@]2(C)[C@@H](CC[C@]3(C)[C@@H]2C(=O)C=C2[C@@H]4C[C@@](C)(C(=O)O)CC[C@]4(C)CC[C@]23C)[C@]1(C)C(=O)OCc1oc(=O)oc1C(C)C [Compound 209-3, (2S,4aS,6aS,6bR,8aR,9S,10S,12aS,12bR,14bR)-10-acetoxy-9-(((5-isopropyl-2-oxo-1,3-dioxol-4-yl)methoxy)carbonyl)-2,4a,6a,6b,9,12a-hexamethyl-13-oxo-1,2,3,4,4a,5,6,6a,6b,7,8,8a,9,10,11,12,12a,12b,13,14b-icosahydropicene-2-carboxylic acid] | 7.2 |
| Cc1oc(=O)oc1COC(=O)COC[C@@]1(C)[C@@H]2CC[C@]3(C)[C@H](C(=O)C=C4[C@@H]5C[C@@](C)(C(=O)O)CC[C@]5(C)CC[C@]43C)[C@@]2(C)CC[C@@H]1O [Compound 240-8, (2S,4aS,6aS,6bR,8aR,9R,10S,12aS,12bR,14bR)-10-Hydroxy-2,4a,6a,6b,9,12a-hexamethyl-9-((2-((5-methyl-2-oxo-1,3-dioxol-4-yl)methoxy)-2-oxoethoxy)methyl)-13-oxo-1,2,3,4,4a,5,6,6a,6b,7,8,8a,9,10,11,12,12a,12b,13,14b-icosahydropicene-2-carboxylic acid] | 5 |
